Legend:
Type in all cases: cell-based
OVISE cell line = assay: Drug and growth-inhibitor assay (Cell Titer-Glo cell viability), OVISE; conditions: for effect on cell growth: concentration 0.1 g/ml to […], alone
Protocol: (§1) Cysplatin (CDDP, Randa, molecular weight, 300.5 Da) was purchased from Nippon Kayaku (Tokyo, Japan). Propargylglycine (PPG, molecular weight, 113.11 Da), a specific inhibitor of CTH, was purchased from Sigma-Aldrich. OVISE, OVTOKO, and OVCAR-3 were seeded into opaque-walled 96-well plates in a concentration of 1×10^4 cells/well on the day before adding the drugs. CDDP solution of various concentrations (0, 0.02, 0.1, 0.5, 2.5, and 12.5 µg/ml) was then added to the wells in duplicate. In the following, PPG dissolved in water ([…]) was added. 96 hours after addition of the drugs, cell viability was quantified using the Cell Titer-Glo Luminescent Cell Viability Assay (Promega, Madison, Wis.). Luminescence activity was measured with a GloMAx96 Microplate Luminometer (Promega).
(§2) The protein expression of CTH was examined in 9 ovarian cancer cell lines by western blot analysis. Among all the ovarian cell lines, CTH expression was only observed in OVISE and OVTOKO (FIG. 5E). […] There was a positive correlation between protein expression of CTH and IC50 of CDDP in ovarian cancer cell lines (FIG. 5 F-H). The IC50s of propargylglycine, a specific inhibitor of CTH, were also analyzed in these cell lines. Propargylglycine at a concentration ranging from […] to 10 µg/ml had no effect on cell growth of these cell lines. Thus, combination of CDDP and propargylglycine (FIG. 5 I-K) was also examined.

OVTOKO cell line = assay: Drug and growth-inhibitor assay (Cell Titer-Glo cell viability), OVTOKO; conditions: for effect on cell growth: concentration 0.1 g/ml to […], alone
Protocol: as §1, §2

OVCAR3 cell line = assay: Drug and growth-inhibitor assay (Cell Titer-Glo cell viability), OVCAR3; conditions: concentration 0.1 g/ml to […], alone
Protocol: as §1
as §2, with “Thus, combination of CDDP and propargylglycine (FIG. 5 I-K) was also examined.” left out

[1] = […] propargylglycine in culture medium, versus medium without PPG

Compound	change of IC50 of CDDP in combination with propargylglycine (OVISE cell line; [1])	change of IC50 of CDDP in combination with propargylglycine (OVTOKO cell line; [1])	effect on cell growth (OVCAR3 cell line)	effect on cell growth (OVCAR3 cell line; listed as PPG)	effect on cell growth (OVISE cell line)	effect on cell growth (OVISE cell line; listed as PPG)	effect on cell growth (OVTOKO cell line)	effect on cell growth (OVTOKO cell line; listed as PPG)
[NH2][Pt]([NH2])([Cl])[Cl] [CDDP, Cysplatin]	significantly decreased	significantly decreased	–	–	–	–	–	–
C#CCC(N)C(=O)O (centres unmarked) [Propargylglycine]	–	–	no effect	did not affect cell growth	no effect	did not affect cell growth	no effect	did not affect cell growth

From US20120058204A1, “USE OF OVER EXPRESSION OF CYSTATHIONINE GAMMA LYASE AS A PROGNOSTIC, DIAGNOSTIC AND THERAPEUTIC TARGET FOR CANCER” (NATIONAL CANCER CENTER RESEARCH INSTITUTE, priority 2010, published 2012)
